# Source: patent US5399681A, “Method for preparing N^6 -substituted NAD, NADP or FAD” (Gesellschaft fur Biotechnologische Forschung mbH (GBF), priority 1986, dated 1995)
# Biological target: T1, yeast alcohol dehydrogenase (Saccharomyces cerevisiae, UniProt P00330)
# T1 sequence (P00330 1-348): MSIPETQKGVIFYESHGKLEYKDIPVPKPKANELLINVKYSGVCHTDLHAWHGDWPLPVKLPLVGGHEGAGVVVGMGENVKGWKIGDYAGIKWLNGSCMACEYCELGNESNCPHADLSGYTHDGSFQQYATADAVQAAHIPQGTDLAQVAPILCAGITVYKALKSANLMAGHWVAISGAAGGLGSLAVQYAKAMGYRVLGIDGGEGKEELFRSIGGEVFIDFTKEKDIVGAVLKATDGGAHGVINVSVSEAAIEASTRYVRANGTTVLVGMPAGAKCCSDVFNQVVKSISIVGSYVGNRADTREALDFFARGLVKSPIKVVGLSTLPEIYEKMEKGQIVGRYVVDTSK
# Assay: Enzymatic reducibility with the reaction catalyzed by yeast alcohol dehydrogenase
# Format: biochemical
# Settings: 0.1M tris/HCl pH 8.2, room temperature, 0.1M ethanol, 7 mM semicarbazide/HCl, 0.1 mM coenzyme free or polymer-bound, 0.3 mg alcohol dehydrogenase
# Experimental: The enzymatic reducibility of the water-soluble polymer-bound N^6 -(2-aminoethyl)-NAD derivatives was determined compared with N^6 -(2-aminoethyl)-NAD with the reaction catalyzed by yeast alcohol dehydrogenase under the following conditions:
# 0.1M tris/HCl, pH 8.2, room temperature
# 0.1 mM N^6 -(2-aminoethyl)-NAD
# 0.3 mg alcohol dehydrogenase
# Note: For N^6 -(2-aminoethyl)-NAD and N^6 -(2-aminoethyl)-NADH derivatives ε267 =21000 M^-1 cm^-1 and ε340 =6220 M^-1 cm^-1 as extiction coefficients.
row,Compound,Reducibility %
1,poly-(ethylene/maleic acid)-N^6 -(2-aminoethyl)-NAD,60%
2,poly-(methylvinyl ether/maleic acid)-N^6 -(2-aminoethyl)-NAD,70%
3,polyethylene glycol N^6 -(2-aminoethyl)-NAD,90%
4,NCCNc1ncnc2c1ncn2[C@@H]1O[C@H](COP(=O)(O)OP(=O)([O-])OC[C@H]2O[C@@H]([n+]3cccc(C(N)=O)c3)[C@H](O)[C@@H]2O)[C@@H](O)[C@H]1O [N^6-(2-aminoethyl)-NAD],100%
5,dextran-N^6 -(2-aminoethyl)-NAD,90%
6,poly-(divinyl ether/maleic acid)-N^6 -(2-aminoethyl)-NAD,60%
7,polyvinylpyrrolidone N^6 -(2-aminoethyl)-NAD,90%

# Same assay, conditions: catalyzed by beer yeast alcohol dehydrogenase
row,Enzymatic reduction to N^6 -(2-aminoethyl)-NADH (in words),Compound
1,Quantitative reduction,NCCNc1ncnc2c1ncn2[C@@H]1O[C@H](COP(=O)(O)OP(=O)([O-])OC[C@H]2O[C@@H]([n+]3cccc(C(N)=O)c3)[C@H](O)[C@@H]2O)[C@@H](O)[C@H]1O [N^6-(2-aminoethyl)-NAD]

# Biological target: T2, yeast glucose 6-phosphate dehydrogenase (Saccharomyces cerevisiae, UniProt P11412)
# T2 sequence (P11412 1-505): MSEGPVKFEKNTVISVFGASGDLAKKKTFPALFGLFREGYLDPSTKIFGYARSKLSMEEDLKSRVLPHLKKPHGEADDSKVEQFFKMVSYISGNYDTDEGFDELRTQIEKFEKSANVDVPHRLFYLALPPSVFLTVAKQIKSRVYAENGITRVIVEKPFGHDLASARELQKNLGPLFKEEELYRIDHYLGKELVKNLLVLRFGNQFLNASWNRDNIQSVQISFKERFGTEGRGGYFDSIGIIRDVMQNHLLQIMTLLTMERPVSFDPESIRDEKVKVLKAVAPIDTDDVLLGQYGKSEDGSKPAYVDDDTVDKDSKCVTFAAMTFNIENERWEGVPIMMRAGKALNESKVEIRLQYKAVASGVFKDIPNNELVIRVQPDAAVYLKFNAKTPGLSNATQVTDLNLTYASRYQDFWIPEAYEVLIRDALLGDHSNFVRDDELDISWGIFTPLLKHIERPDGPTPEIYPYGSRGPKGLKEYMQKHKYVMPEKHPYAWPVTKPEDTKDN
# Assay: Enzymatic reducibility with the reaction catalyzed by yeast glucose 6-phosphate dehydrogenase
# Format: biochemical
# Settings: 0.05M triethanolamine/HCl pH 8.0, room temperature, 5.5 mM MgCl2, 4.5 mM glucose-6-phosphate, 0.1 mM coenzyme free or polymer-bound, 30 μg glucose-6-phosphate dehydrogenase
# Experimental: The enzymatic reducibility of the water-soluble polymer-bound N^6 -(2-aminoethyl)-NADP derivatives was determined compared with N^6 -(2-aminoethyl)-NADP with the reaction catalyzed by yeast glucose 6-phosphate dehydrogenase under the following conditions:
# 0.05M triethanolamine/HCl, pH 8.0, room temperature
# 4.5 mM glucose-6-phosphate
# 0.1 mM N^6 -(2-aminoethyl)-NADP (free or polymer-bound)
# 30 μg glucose-6-phosphate dehydrogenase
# Note: For the N^6 -(2-aminoethyl)NADP and ^6 -(2-aminoethyl)-NADPH derivatives ε267 =21000 M^-1 cm^-1 and ε340 =6220 M^-1 cm^-1 were assumed as extinction coefficients.
row,Reducibility %,Compound
1,100%,NCCNc1ncnc2c1ncn2[C@@H]1O[C@H](COP(=O)(O)OP(=O)([O-])OC[C@H]2O[C@@H]([n+]3cccc(C(N)=O)c3)[C@H](O)[C@@H]2O)[C@@H](O)[C@H]1OP(=O)(O)O [N^6-(2-aminoethyl)-NADP]
2,63%,poly-(divinyl ether/maleic acid)-N^6 -(2-aminoethyl)-NADP
3,95%,PEG (Mr =20000)-N^6 -(2-aminoethyl)-NADP
4,60%,poly-(methylvinyl ether/maleic acid)-N^6 -(2-aminoethyl)-NADP
5,50%,poly-(ethylene/maleic acid)-N^6 -(2-aminoethyl)-NADP
6,95%,PEG (Mr =4000)-N^6 -(2-aminoethyl)-NADP

# Same assay, conditions: catalyzed by beer yeast glucose-6-phosphate dehydrogenase
row,Enzymatic reduction to N^6 -(2-aminoethyl)-NADPH (in words),Compound
1,Quantitative reduction,NCCNc1ncnc2c1ncn2[C@@H]1O[C@H](COP(=O)(O)OP(=O)([O-])OC[C@H]2O[C@@H]([n+]3cccc(C(N)=O)c3)[C@H](O)[C@@H]2O)[C@@H](O)[C@H]1OP(=O)(O)O [N^6-(2-aminoethyl)-NADP]
